Measurements from EP0300073A1 (priority 1987, dated 1989).

How the values were obtained:
rhinovirus = conditions: cited from earlier work
AIDS = assay: clinical use in AIDS patients (case history, fusidic acid added to the therapeutic regimen); format: in vivo, human
Experimental: Since it is known that fusidic acid can penetrate phagocytic cells and kill intracellular bacteria, fusidic acid was administered to AIDS patients with opportunistic infections in the hope that it might assist other antibiotics in combatting these infections. […] The present invention is based on this unexpected finding.
The patient, a person with a past history of hepatitis (HBsAG positive) and recurrent seborrhoic dermatitis was well until 1984 when they consulted a physician since they were suffering from lethargy, fever and weight loss. […] They remained stable with no further deterioration until 1986 when they suffered further weight loss and diarrhoea. […] Mycobacterium hominis was grown from both the stool and the blood following the detection of acid fast bacilli in a lymph node biopsy. The patient was given isoniazid, ethambutol and rifampicin as well as antiparasitic and local antifungal therapy. After six weeks of treatment there was no improvement with respect to their symptoms and they continued to lose weight (16 kg since admission). […] (orally) was added to their regimen. Two weeks following commencement they became afebrile, began to put on weight and was able to undergo a transurethral prostectomy, following which they returned to work and has been well since. Two months later they had increased their weight by 10 kg.

RF = assay: in vitro test for anti-HIV activity: prevention of infection of a CD4 positive cell line; format: cell-based; conditions: Human immunodeficiency virus 1, isolate RF, read-out: concentration required to prevent infection of the CD4 positive cell line
Text: (§1) In the in vitro test for anti-HIV activity, a CD4 positive cell line was used.

[1] = system: HIV prototype isolate CBL-1; assay: as above; format: cell-based; conditions: Human immunodeficiency virus 1, read-out: concentration able to inhibit the HIV prototype isolate CBL-1 from infecting the CD4 positive cell line
Text: as §1

fungi = conditions: cited from earlier work
Coxsackie virus A21 = conditions: cited from earlier work
gram negative bacilli = conditions: cited from earlier work

## CC(=O)O[C@H]1C[C@@]2(C)[C@@H](C[C@@H](O)[C@H]3[C@@]4(C)CC[C@@H](O)[C@@H](C)[C@@H]4CC[C@@]32C)/C1=C(\CCC=C(C)C)C(=O)O [fusidic acid]
rhinovirus
  in vitro antiviral effect against rhinovirus: some in vitro antiviral effect
AIDS; AIDS patients with opportunistic infections, added to the therapeutic regimen
  general condition of AIDS patients: remarkable improvement
AIDS; one AIDS patient, 500 mg t.d.s. orally added to isoniazid, ethambutol, rifampicin, antiparasitic and antifungal therapy, two weeks following commencement
  fever status: afebrile
AIDS; one AIDS patient, 500 mg t.d.s. orally added to regimen, two months later
  weight increase: 10 kg
RF
  minimal effective concentration: 100 µg/mL
[1]
  minimal effective concentration: 50 µg/mL
fungi
  activity against fungi: weak activity
Coxsackie virus A21
  in vitro antiviral effect against Coxsackie virus A21: some in vitro antiviral effect
Gram negative bacilli
  activity against gram negative bacilli: weak activity
